One test deals with human DGKα (Homo sapiens, UniProt P23743). In words: DGKα Biochemical Activity Assay (ADP-Glo).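 Further: luminescent detection of ADP produced as DGKα phosphorylates DAG to phosphatidic acid, IC50 from four-parameter nonlinear curve fit.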 Conditions: recombinant DGKα 1 nM, 100 μM ATP, 18:1 DAG/POPS/octylglucoside micelles, 1 hour at 25° C.; geometric mean; read-out: HTBS DGKa 1X ATP KM IC50. (ADP-Glo turns the ADP formed in a reaction into a luminescent signal.)
Test [1] has as its system Jurkat NFκB-luciferase cells. In words: Jurkat NFκB-Luciferase Assay. The class given is cell-based. The following applies: Homo sapiens; Jurkat NFκB-luciferase cells activated with anti-CD3 antibody (OKT3), 2.5 hrs at 37° C.; geometric mean; read-out: DGK NFKb Luciferase EC50. In a few lines: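 Luminescence from One-Glo Ex, read 7 min post-addition, reports NFκB activation in Jurkat luciferase reporter cells. Cells, diluted to 1 million cells/ml in 10% FBS RPMI, were dispensed onto plates holding compound and washed, pre-bound antibody.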

Sequence of human DGKα (P23743 whole entry): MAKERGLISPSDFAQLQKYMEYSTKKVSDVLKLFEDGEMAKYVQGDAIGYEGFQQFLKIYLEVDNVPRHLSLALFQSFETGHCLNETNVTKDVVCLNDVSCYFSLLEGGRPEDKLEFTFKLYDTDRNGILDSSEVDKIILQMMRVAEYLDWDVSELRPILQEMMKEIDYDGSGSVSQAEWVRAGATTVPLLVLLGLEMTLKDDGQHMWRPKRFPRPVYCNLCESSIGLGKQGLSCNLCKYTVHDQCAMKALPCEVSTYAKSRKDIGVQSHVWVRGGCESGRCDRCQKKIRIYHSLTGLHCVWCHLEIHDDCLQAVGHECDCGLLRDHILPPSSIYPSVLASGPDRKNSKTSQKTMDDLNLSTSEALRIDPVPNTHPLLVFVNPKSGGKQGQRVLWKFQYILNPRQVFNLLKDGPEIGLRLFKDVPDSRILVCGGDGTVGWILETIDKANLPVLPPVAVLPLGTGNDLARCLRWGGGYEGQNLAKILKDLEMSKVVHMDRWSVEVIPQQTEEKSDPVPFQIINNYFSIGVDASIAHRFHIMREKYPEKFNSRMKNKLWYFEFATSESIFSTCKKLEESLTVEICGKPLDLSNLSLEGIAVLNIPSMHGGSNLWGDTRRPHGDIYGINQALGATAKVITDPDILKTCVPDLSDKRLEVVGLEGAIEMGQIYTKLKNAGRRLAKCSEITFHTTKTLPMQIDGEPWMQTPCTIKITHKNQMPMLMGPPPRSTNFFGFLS

One may read the IC50 as the concentration at which inhibition is half-maximal. As usually defined, the EC50 is the concentration needed to bring the measured effect to its halfway point. As for `CC(C)(C#Cc1cc(N(CC(F)F)c2nc3nncn3c3ccc(F)c(F)c23)ccn1)C(F)(F)F` [Example 93, N-(2,2-difluoroethyl)-6,7-difluoro-N-(2-(4,4,4-trifluoro-3,3-dimethylbut-1-yn-1-yl)pyridin-4-yl)-[1,2,4]triazolo[4,3-a]quinazolin-5-amine], on human DGKα, the IC50 is 8.14 nM. For the same compound, in test [1], the EC50 was 2.63 nM.

On to `CC1(C#Cc2cc(N(CC(F)F)c3nc4nncn4c4ccc(F)c(F)c34)ccn2)CC1` [Example 94, N-(2,2-difluoroethyl)-6,7-difluoro-N-(2-((1-methylcyclopropyl)ethynyl)pyridin-4-yl)-[1,2,4]triazolo[4,3-a]quinazolin-5-amine], for which the IC50 at human DGKα was determined as 4.3 nM. Further, the EC50 in test [1] stood at 2.33 nM.

As to `Fc1ccc2c(c(N(CC(F)F)c3ccnc(C#CC4(C(F)(F)F)CC4)c3)nc3nncn32)c1F` [Example 95, N-(2,2-difluoroethyl)-6,7-difluoro-N-(2-((1-(trifluoromethyl)cyclopropyl)ethynyl)pyridin-4-yl)-[1,2,4]triazolo[4,3-a]quinazolin-5-amine], the IC50 at human DGKα turned out to be 7.69 nM. Also, the concentration for a half-maximal effect (EC50) in test [1] was 2.77 nM.

Take `Cc1nnc2nc(N(CC(F)F)c3ccnc(C#CC4(C)CC4)c3)c3cc(F)ccc3n12` [Example 96, N-(2,2-difluoroethyl)-7-fluoro-1-methyl-N-(2-((1-methylcyclopropyl)ethynyl)pyridin-4-yl)-[1,2,4]triazolo[4,3-a]quinazolin-5-amine]: the 50% inhibitory concentration (IC50) on human DGKα worked out at 6.22 nM. Besides, in test [1], the 50% effective concentration (EC50) was 5.1 nM.

On to `CC(C)(C#Cc1nccc(N(CC(F)F)c2nc3nncn3c3ccc(F)cc23)c1F)C(F)(F)F` [Example 97, N-(2,2-difluoroethyl)-7-fluoro-N-(3-fluoro-2-(4,4,4-trifluoro-3,3-dimethylbut-1-yn-1-yl)pyridin-4-yl)-[1,2,4]triazolo[4,3-a]quinazolin-5-amine], for which the IC50 at human DGKα came to 18 nM. The half-maximal effective concentration (EC50) in test [1] stood at 3.9 nM.

As to `COCCN(c1cc(F)cc(C#CC2(C(F)(F)F)CC2)c1)c1nc2nncn2c2cccc(F)c12` [Example 98, 6-fluoro-N-(3-fluoro-5-((1-(trifluoromethyl)cyclopropyl)ethynyl)phenyl)-N-(2-methoxyethyl)-[1,2,4]triazolo[4,3-a]quinazolin-5-amine], the 50% inhibitory concentration (IC50) on human DGKα was determined as 84.7 nM. In addition, in test [1], the EC50 stood at 18.8 nM.

With `CC1(C#Cc2cncc3c2CCCN3c2nc3nncn3c3ccc(F)c(F)c23)CC1` [Example 99, 6,7-difluoro-5-(5-((1-methylcyclopropyl)ethynyl)-3,4-dihydro-1,7-naphthyridin-1(2H)-yl)-[1,2,4]triazolo[4,3-a]quinazoline], the concentration for half-maximal inhibition (IC50) on human DGKα is 7.4 nM. For the same compound, the EC50 in test [1] was 0.483 nM.

With `CC(C)(C#Cc1cncc2c1CCCN2c1nc2nncn2c2ccc(F)c(F)c12)C(F)(F)F` [Example 100, 6,7-difluoro-5-(5-(4,4,4-trifluoro-3,3-dimethylbut-1-yn-1-yl)-3,4-dihydro-1,7-naphthyridin-1(2H)-yl)-[1,2,4]triazolo[4,3-a]quinazoline], the IC50 on human DGKα came out at 6.22 nM. Also, in test [1], the EC50 is 0.122 nM.

For `CC(C)(C)C#Cc1cc(N(CC(F)F)c2nc3nncn3c3ccc(F)cc23)ccn1` [Example 101, N-(2,2-difluoroethyl)-N-(2-(3,3-dimethylbut-1-yn-1-yl)pyridin-4-yl)-7-fluoro-[1,2,4]triazolo[4,3-a]quinazolin-5-amine], the half-maximal inhibitory concentration (IC50) at human DGKα was 5.56 nM. For the same compound, the concentration for a half-maximal effect (EC50) in test [1] worked out at 4.69 nM.

With `CC1(C#Cc2cc(N(CC(F)F)c3nc4nncn4c4ccc(F)cc34)ccn2)CC1` [Example 102, N-(2,2-difluoroethyl)-7-fluoro-N-(2-((1-methylcyclopropyl)ethynyl)pyridin-4-yl)-[1,2,4]triazolo[4,3-a]quinazolin-5-amine], at human DGKα, the IC50 is 3.8 nM. Besides, in test [1], the EC50 is 2.81 nM.

As for `Fc1ccc2c(c1)c(N(CC(F)F)c1ccnc(C#CC3(C(F)(F)F)CC3)c1)nc1nncn12` [Example 103, N-(2,2-difluoroethyl)-7-fluoro-N-(2-((1-(trifluoromethyl)cyclopropyl)ethynyl)pyridin-4-yl)-[1,2,4]triazolo[4,3-a]quinazolin-5-amine], the IC50 on human DGKα turned out to be 5.13 nM. Besides, the concentration giving a half-maximal response (EC50) in test [1] was 2.27 nM.

For the compound `Cc1nnc2nc(N(CC(F)F)c3cc(F)cc(C#CC(C)(C)O)c3)c3c(F)cc(Cl)cc3n12` [Example 104, 4-(3-((8-chloro-6-fluoro-1-methyl-[1,2,4]triazolo[4,3-a]quinazolin-5-yl)(2,2-difluoroethyl)amino)-5-fluorophenyl)-2-methylbut-3-yn-2-ol], the half-inhibitory concentration (IC50) at human DGKα worked out at 8.06 nM. Also, the 50% effective concentration (EC50) in test [1] stood at 8.95 nM.

Turning to `Cc1cc(F)cc2c(N(CC(F)F)c3cc(F)cc(C#CC(C)(C)O)c3)nc3nncn3c12` [Example 105], the IC50 at human DGKα was determined as 30.6 nM. In addition, the EC50 in test [1] worked out at 27.1 nM.

For `Cc1cc(F)cc2c(N(CC(F)F)c3cc(F)cc(C#CC4(C(F)(F)F)CC4)c3)nc3nncn3c12` [Example 106], the IC50 on human DGKα was 118 nM. For the same compound, the concentration for a half-maximal effect (EC50) in test [1] turned out to be 2.53 nM.

For the compound `Cc1cccc2c(N3CCOCc4c(C#CC5(C(C)(F)F)CC5)cccc43)nc3nncn3c12` [Example 107], at human DGKα, the IC50 was 39.9 nM. The concentration for a half-maximal effect (EC50) in test [1] came to 3.21 nM.

On to `Cc1nnc2nc(N3CCOCc4c(C#CC5CC5)cccc43)c3cc(C#N)ccc3n12` [Example 108], for which, on human DGKα, the IC50 was 4.69 nM. Moreover, the EC50 in test [1] was 2.84 nM.

Turning to `Cc1nnc2nc(N3CCOCc4c(C#CC5(C)CC5)cccc43)c3cc(C#N)ccc3n12` [Example 109], the half-maximal inhibitory concentration (IC50) on human DGKα was found to be 7.3 nM. Besides, the concentration for a half-maximal effect (EC50) in test [1] is 1.67 nM.

As for `CC(C)(O)C#Cc1cccc2c1CCCCN2c1nc2nncn2c2c(F)ccc(F)c12` [Example 110], the half-maximal inhibitory concentration (IC50) on human DGKα is 2.76 nM. In addition, in test [1], the EC50 is 9.8 nM.

`CC(C)(O)C#Cc1cccc2c1COCCN2c1nc2nncn2c2c(F)ccc(F)c12` [Example 111]: at human DGKα, the half-maximal inhibitory concentration (IC50) came to 6.5 nM. Also, in test [1], the concentration for a half-maximal effect (EC50) was determined as 45.8 nM.

As for `Fc1ccc(F)c2c1c(N1CCOCc3c(C#CC4(C(F)(F)F)CC4)cccc31)nc1nncn12` [Example 112], the IC50 at human DGKα was 3.48 nM. Also, the concentration for a half-maximal effect (EC50) in test [1] is 0.716 nM.

With `CC1(C#Cc2cccc3c2COCCN3c2nc3nncn3c3c(F)ccc(F)c23)CC1` [Example 113], the IC50 at human DGKα was 1.44 nM. Also, the EC50 in test [1] came out at 0.9 nM.

Turning to `CC(C)(O)C#Cc1cc(F)cc2c1CCCN2c1nc2nncn2c2c(F)cc(F)cc12` [Example 114], the IC50 at human DGKα was 6.76 nM. For the same compound, the 50% effective concentration (EC50) in test [1] was found to be 12.5 nM.

On to `Cc1nnc2nc(N3CCCOc4c(C#CC5(C(C)(F)F)CC5)cccc43)c3c(F)c(F)ccc3n12` [Example 115], for which the IC50 on human DGKα is 32.8 nM. The 50% effective concentration (EC50) in test [1] was determined as 2.37 nM.

In the case of `Cc1nnc2nc(N3CCCOc4c(C#CC5CC5)cccc43)c3c(F)c(F)ccc3n12` [Example 116], the 50% inhibitory concentration (IC50) on human DGKα amounted to 5.19 nM. In addition, the EC50 in test [1] came out at 1.07 nM.

For the compound `CC1(C#Cc2cccc3c2CCCN3c2nc3nncn3c3c(F)ccc(F)c23)CC1` [Example 117], the half-maximal inhibitory concentration (IC50) at human DGKα worked out at 14.8 nM. In addition, the EC50 in test [1] stood at 1.32 nM.

As for `Fc1cc(F)c2c(c1)c(N1CCCc3c(C#CC4(C(F)(F)F)CC4)cccc31)nc1nncn12` [Example 118], the IC50 on human DGKα is 4.89 nM. Besides, the 50% effective concentration (EC50) in test [1] came to 5.81 nM.

`Fc1cc(F)c2c(c1)c(N1CCCc3c(C#CC4(C(F)F)CC4)cccc31)nc1nncn12` [Example 119]: the IC50 on human DGKα is 2.13 nM. Also, the half-maximal effective concentration (EC50) in test [1] was 2.86 nM.

Consider `CC(C)(O)C#Cc1cccc2c1CCCN2c1nc2nncn2c2c(F)cc(F)cc12` [Example 120], for which the 50% inhibitory concentration (IC50) at human DGKα stood at 4.99 nM. The EC50 in test [1] stood at 12.3 nM.

`Fc1cccc2c1c(N1CCCOc3c(C#CC4(C(F)(F)F)CC4)cccc31)nc1nncn12` [Example 121]: the IC50 at human DGKα is 22.8 nM. In addition, in test [1], the EC50 turned out to be 4.95 nM.

Take `Cc1nnc2nc(N3CCCOc4c(C#CC5(C)CC5)cccc43)c3c(F)c(F)ccc3n12` [Example 122]: the half-inhibitory concentration (IC50) on human DGKα worked out at 5.27 nM. Moreover, the concentration for a half-maximal effect (EC50) in test [1] turned out to be 2.63 nM.

In the case of `CC(C)(C#Cc1cccc2c1OCCCN2c1nc2nncn2c2cccc(F)c12)C(F)(F)F` [Example 123], on human DGKα, the half-inhibitory concentration (IC50) is 31.5 nM. Further, in test [1], the half-maximal effective concentration (EC50) is 0.533 nM.

Regarding `CC(C)(C#Cc1cccc2c1COCCN2c1nc2nnc(N)n2c2cccc(F)c12)C(F)(F)F` [Example 124, 6-fluoro-5-(6-(4,4,4-trifluoro-3,3-dimethylbut-1-yn-1-yl)-2,3-dihydrobenzo[e][1,4]oxazepin-1(5H)-yl)-[1,2,4]triazolo[4,3-a]quinazolin-1-amine], the IC50 at human DGKα was determined as 16.8 nM. Moreover, the concentration for a half-maximal effect (EC50) in test [1] worked out at 0.781 nM.

For the compound `Cc1nnc2nc(N3CCCc4c(C#CC(C)(C)C#N)cccc43)c3c(Cl)cccc3n12` [Example 125, 4-(1-(6-chloro-1-methyl-[1,2,4]triazolo[4,3-a]quinazolin-5-yl)-1,2,3,4-tetrahydroquinolin-5-yl)-2,2-dimethylbut-3-ynenitrile], the half-maximal inhibitory concentration (IC50) on human DGKα was determined as 16.4 nM. Also, in test [1], the EC50 worked out at 2.9 nM.

As to `Cc1nnc2nc(N3CCCc4c(C#CC5(C(F)F)CC5)cccc43)c3c(Cl)cccc3n12` [Example 126, 6-chloro-5-(5-((1-(difluoromethyl)cyclopropyl)ethynyl)-3,4-dihydroquinolin-1(2H)-yl)-1-methyl-[1,2,4]triazolo[4,3-a]quinazoline], the half-inhibitory concentration (IC50) on human DGKα worked out at 17.2 nM. In addition, the concentration for a half-maximal effect (EC50) in test [1] turned out to be 1.16 nM.

Regarding `CC1(C#Cc2cccc3c2COCCN3c2nc3nnc(N)n3c3cccc(F)c23)CC1` [Example 127], the concentration for half-maximal inhibition (IC50) at human DGKα was determined as 8.42 nM. Moreover, the EC50 in test [1] came to 2.02 nM.

As for `Cc1nnc2nc(N(CC(F)F)c3cc(F)cc(-c4ccc(C(C)(C)O)cc4)c3)c3c(F)cccc3n12` [Example 128, 2-(3′-((2,2-difluoroethyl)(6-fluoro-1-methyl-[1,2,4]triazolo[4,3-a]quinazolin-5-yl)amino)-5′-fluoro-[1,1′-biphenyl]-4-yl)propan-2-ol], the concentration for half-maximal inhibition (IC50) on human DGKα turned out to be 20.8 nM. Also, the concentration for a half-maximal effect (EC50) in test [1] stood at 7.48 nM.

The record behind these values is patent publication US11976072B2, “Diacylglycerol kinase modulating compounds” (priority 2021, dated 2024).
